Data reported in patent US11006626B2, “Compounds for protection of cells” (Sulfateq B.V., priority 2012, dated 2021).

Key:
Type in all cases: cell-based
blood platelets = assay: Cold storage of PRP blood platelets, aggregation of thrombocytes after storage; set-up: key: − means that most of the thrombocytes were aggregated; a + indicates that a few cells were still viable but some cells aggregated; a ++ indicates that almost all cells were viable; conditions: 30 mM; PRP platelets stored at 4° C.; 264 hours
Procedure: PRP platelets were harvested and 2.1 ml was suspended in Poly Propylene tubes of 5 ml, closed with a stop.
Several compounds according to the invention were added to the blood platelets directly after preparing the PRP plasma and incubated during 10 minutes at 37° C. or 30 minutes at room temperature. The blood platelets with the compound were then stored at 4° C.
A control was stored under shaking conditions at room temperature. Another control was stored at 4° C. without the addition of a compound.
(§1) A sample was taken out of each tube after 264 hours after addition of the compound and tested as follows: • The color and coagulation properties were visually analysed. • The thrombocyte cells that survived were counted and it was evaluated whether the thrombocytes were aggregated. • It was evaluated if the thrombocytes still were able to function after stimulation by the addition of ADP or under influence of collagen in a 96 well plate. • The adhesion was evaluated, meaning the ability of the platelets to bind collagen in a 6 well plate preincubated with collagen. • Via an ELISA assay, it was evaluated whether thromboxane was secreted from the platelets. Thromboxane facilitates aggregation and is produced by activated blood platelets.
Table 3 provides an overview of the results of the addition of the compounds to the blood platelets and evaluates the aggregation of the thrombocytes after addition of the compound according to the invention and cooling until 4° C.

apherese blood platelets = assay: Apheresis platelets stored with Sul 136, Annexin V test by flow cytometry; conditions: stored at 4° C. with Sul 136
Procedure: 300 μM suspension of Sul 136 is added with a procedure, which keeps the bag content sterile and the Sul 136 is kept in suspension by frequent whirling and stored at 37° C. before it is added to the freshly harvested platelets. The Sul 136 suspension is added to three platelet bags directly from the bag. After addition, the content of the platelet bag is gently mixed. After 2 hours the first sample is drawn with a seal-docked sample bag. The sample bag is disconnected by welding and from this sample bag the samples are taken for hematology analyzing, aggregometer tests and the flow-cytometry tests. Swirling in the bag is reported by experience of the laboratory worker in the standard format. Platelets without Sul 136 put on a flatbed shaker and stored at room temperature were used as control. Another control is stored at 4° C. Platelet samples in which Sul 136 is added, are stored without shaking in a refrigerator at 4° C.
On a Beckman Coulter FC 500 flow cytometer using the Roche Annexin-V FLUOS Staining Kit
A mix of 20 μl Annexin-V fluorescein from Roche kit into 1 ml incubation buffer was made and 20 μl propidium iodide solution was added. 2 ml of platelet concentrate was centrifuged on standard Eppendorf centrifuge and the supernatant was discarded.
1 ml PBS buffer was added and cell concentration was checked whether it was around 1.000.000. This was diluted 100 times with the prepared Annexin-V fluorescein and propidium iodide mix and incubated for 15 minutes. 500 μl incubation buffer from kit was added and cell analysis was made in a flowcytometer.

PRP platelets = PRP platelets stored with Sul 136, aggregation after stimulation with collagen; set-up: key: +means that the cells show aggregation; ++means strong aggregation, these platelets can thus be activated upon stimulation; −means no aggregation upon stimulation
Procedure: as §1, with “A sample was taken out of each tube after 264 hours after addition of the compound and tested as follows:” left out
(+means that the cells show aggregation, ++means strong aggregation, these platelets can thus be activated upon stimulation, −means no aggregation upon stimulation)

Cc1c(C)c2c(c(C)c1O)CCC(C)(C(=O)N1CCN(CC(=O)O)CC1)O2 (racemic) [SUL - 136, 2-(4-(6-hydroxy-2,5,7,8-tetramethylchroman-2-carbonyl)piperazin-1-yl)acetic acid]
Aggregation of blood platelets after storage (blood platelets): +
Annexin (% positive) (apherese blood platelets; Donor 2, Day 1): 5.98%
Annexin (% positive) (apherese blood platelets; Donor 2, Day 2): 10.96%
Annexin (% positive) (apherese blood platelets; Donor 2, Day 3): 19.56%
Annexin (% positive) (apherese blood platelets; Donor 2, Day 5): 32.11%
Annexin (% positive) (apherese blood platelets; Donor 2, Day 8): 45.71%
Annexin (% positive) (apherese blood platelets; Donor 2, Day 10): 53.96%
Annexin (% positive) (apherese blood platelets; Donor 2, Day 12): 62.97%
Annexin (% positive) (apherese blood platelets; Donor 2, Day 19): 72.67%
Annexin (% positive) (apherese blood platelets; Donor 3, Day 1): 5.14%
Annexin (% positive) (apherese blood platelets; Donor 3, Day 2): 8.68%
Annexin (% positive) (apherese blood platelets; Donor 3, Day 3): 14.34%
Annexin (% positive) (apherese blood platelets; Donor 3, Day 5): 27.77%
Annexin (% positive) (apherese blood platelets; Donor 3, Day 8): 41.97%
Annexin (% positive) (apherese blood platelets; Donor 3, Day 10): 62.65%
Annexin (% positive) (apherese blood platelets; Donor 3, Day 12): 70.33%
Annexin (% positive) (apherese blood platelets; Donor 3, Day 19): 80.99%
Annexin (% positive) (apherese blood platelets; donor 1, Day 1): 4.51%
Annexin (% positive) (apherese blood platelets; donor 1, Day 2): 14.48%
Annexin (% positive) (apherese blood platelets; donor 1, Day 3): 18.24%
Annexin (% positive) (apherese blood platelets; donor 1, Day 5): 20.38%
Annexin (% positive) (apherese blood platelets; donor 1, Day 8): 34.56%
Annexin (% positive) (apherese blood platelets; donor 1, Day 10): 43.52%
Annexin (% positive) (apherese blood platelets; donor 1, Day 12): 56.91%
Annexin (% positive) (apherese blood platelets; donor 1, Day 19): 88.34%
aggregation of the PRP platelets after stimulation with collagen (PRP platelets; 10 min 0.001 mM, 0 h): +
aggregation of the PRP platelets after stimulation with collagen (PRP platelets; 10 min 0.01 mM, 0 h): +
aggregation of the PRP platelets after stimulation with collagen (PRP platelets; 10 min 0.1 mM, 0 h): +
aggregation of the PRP platelets after stimulation with collagen (PRP platelets; 10 min 1 mM, 0 h): +
aggregation of the PRP platelets after stimulation with collagen (PRP platelets; 10 min 10 mM, 0 h): ++
aggregation of the PRP platelets after stimulation with collagen (PRP platelets; 10 min 10 mM, 24 h): ++
aggregation of the PRP platelets after stimulation with collagen (PRP platelets; 10 min 10 mM, 48 h): ++
aggregation of the PRP platelets after stimulation with collagen (PRP platelets; 10 min 10 mM, 72 h): ++
aggregation of the PRP platelets after stimulation with collagen (PRP platelets; 10 min 10 mM, 216 h): ++
aggregation of the PRP platelets after stimulation with collagen (PRP platelets; 60 min 0.001 mM, 0 h): +
aggregation of the PRP platelets after stimulation with collagen (PRP platelets; 60 min 0.01 mM, 0 h): +
aggregation of the PRP platelets after stimulation with collagen (PRP platelets; 60 min 0.1 mM, 0 h): +
aggregation of the PRP platelets after stimulation with collagen (PRP platelets; 60 min 1 mM, 0 h): +
aggregation of the PRP platelets after stimulation with collagen (PRP platelets; 60 min 10 mM, 0 h): ++
aggregation of the PRP platelets after stimulation with collagen (PRP platelets; 60 min 10 mM, 24 h): ++
aggregation of the PRP platelets after stimulation with collagen (PRP platelets; 60 min 10 mM, 48 h): ++
aggregation of the PRP platelets after stimulation with collagen (PRP platelets; 60 min 10 mM, 72 h): ++
